Assays:
[1] = system: porcine primary retinal pigment epithelial cells (RPE); experiment: Apoptosis by Cell Death ELISA Plus Kit in primary RPE cells; type: cell-based
Description: (§1) RPE, ARPE-19, and MDCK-F1 cells are exposed to both PG (0, 10, 50 µg/ml) and A2E (0, 15 or 20 µM) for 4 hrs. […] RPE, ARPE-19, and MDCK-F1 cells are exposed to both PG (0, 10, 50 µg/ml) and iso-A2E (0, 15 or 20 µM) under the influence of light for 4 hrs. Then they are washed 3 times with PBS and the apoptosis is determined by Cell Death ELISA Plus Kit (Roche, Mannheim, Germany)
(§2) As an example, the apoptotic effect of A2E on porcine primary retinal pigment epithelial cells (RPE), and the cell lines ARPE-19 and MDCK-F1 cells is analyzed. • Example 1 describes the apoptotic effect of A2E on RPE, ARPE-19, and MDCK-F1 cells. The cells are exposed to 0, 15 and 30 µM of A2E for 2, 4, 6 and 22 hrs. […] Then they are washed 3 times with PBS and the apoptosis is determined by Cell Death ELISA Plus Kit (Roche, Mannheim, Germany). • Example 3 describes the apoptotic effect of A2E on RPE, ARPE-19, and MDCK-F1 cells after application of iso-A2E and exposure in light (photo-isomerization). […] Then they are washed 3 times with PBS and the apoptosis is determined by Cell Death ELISA Plus Kit (Roche, Mannheim, Germany) (see figure 4).
(§3) RPE and ARPE-19 cells: Primary porcine retinal pigment epithelial cells were isolated as previously described. […] Detection of apoptosis: Apoptosis was detected by Cell Death ELISA Plus Kit (Roche, Mannheim, Germany). […]

ARPE-19 cells = experiment: Apoptosis by Cell Death ELISA Plus Kit in ARPE-19 cells; type: cell-based, human
Description: as §1, §2, §3

MDCK-F1 cells = experiment: Apoptosis by Cell Death ELISA Plus Kit in MDCK-F1 cells; type: cell-based, canine
Description: as §1, §2, §3

[2] = PG (0, 10, 50 µg/ml) together with A2E (0, 15 or 20 µM) for 4 hrs, Figure 3
[3] = PG (0, 10, 50 µg/ml) together with iso-A2E (0, 15 or 20 µM) under the influence of light for 4 hrs, Figure 4

L-A-Phosphatidyl-DL-Glycerol sodium [PG]
protective effect: protective effect regarding the apoptotic effect of A2E [1, 2] | protective effect regarding the apoptotic effect of photo-isomerization of iso-A2E [1, 3] | protective effect regarding the apoptotic effect of A2E (ARPE-19 cells; [2]) | protective effect regarding the apoptotic effect of photo-isomerization of iso-A2E (ARPE-19 cells; [3]) | protective effect regarding the apoptotic effect of A2E (MDCK-F1 cells; [2]) | protective effect regarding the apoptotic effect of photo-isomerization of iso-A2E (MDCK-F1 cells; [3])

Source: EP1510211A1, “Pharmaceutical composition comprising N-retinyl-N-retinylidene Ethanolamine (A2E), isoforms of A2E or derivatives thereof” (Lynkeus Biotech GmbH, priority 2003, dated 2005)
